Source: ChEMBL document CHEMBL1909046, “DrugMatrix in vitro pharmacology data”

Key:
[1] = DRUGMATRIX: Leukotriene, BLT (LTB4) radioligand binding (ligand: [3H]LTB4); assay type: cell membranes, Membrane; details: u-937; Not Active = under 50% inhibition at 10 µM
[2] = target: Beta-2 adrenergic receptor (Homo sapiens, UniProt P07550); test: DRUGMATRIX: Adrenergic beta2 radioligand binding (ligand: [3H] CGP-12177); assay type: cell membranes, Membrane; details: cho; Not Active = under 50% inhibition at 10 µM
Beta-2 adrenergic receptor, sequence (P07550 whole entry): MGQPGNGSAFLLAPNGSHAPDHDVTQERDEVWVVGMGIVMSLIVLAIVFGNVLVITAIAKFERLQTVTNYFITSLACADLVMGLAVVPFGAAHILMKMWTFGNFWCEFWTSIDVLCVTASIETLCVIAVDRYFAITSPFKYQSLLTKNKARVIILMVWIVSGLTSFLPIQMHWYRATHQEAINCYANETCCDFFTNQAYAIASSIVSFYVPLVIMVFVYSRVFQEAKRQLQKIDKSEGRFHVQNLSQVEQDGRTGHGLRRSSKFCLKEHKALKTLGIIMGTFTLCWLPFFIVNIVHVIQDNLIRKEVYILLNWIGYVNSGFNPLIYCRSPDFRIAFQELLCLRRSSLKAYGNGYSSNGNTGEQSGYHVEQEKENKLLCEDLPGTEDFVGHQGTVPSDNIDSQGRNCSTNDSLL

[3] = DRUGMATRIX: Glutamate, Kainate radioligand binding (ligand: [3H] Kainic acid); assay type: cell membranes, Rattus norvegicus, Wistar, Brain, Membrane; details: Not Active = under 50% inhibition at 10 µM
[4] = DRUGMATRIX: Calcium Channel Type L, Dihydropyridine radioligand binding (ligand: [3H] Nitrendipine); assay type: cell membranes, Rattus norvegicus, Wistar, Cerebral cortex, Membrane; details: Not Active = under 50% inhibition at 10 µM
[5] = DRUGMATRIX: Interleukin IL-1 radioligand binding (ligand: [125I] interleukin 1beta); assay type: cell membranes, Membrane; details: nih3t3; Not Active = under 50% inhibition at 10 µM
Cytochrome P450 1A2 = target: T1, Cytochrome P450 1A2 (Homo sapiens, UniProt P05177); details: bti-tn-5b1-4; also: in other assays of this panel Not Active means under 50% inhibition at 10 µM
T1 sequence (P05177 whole entry): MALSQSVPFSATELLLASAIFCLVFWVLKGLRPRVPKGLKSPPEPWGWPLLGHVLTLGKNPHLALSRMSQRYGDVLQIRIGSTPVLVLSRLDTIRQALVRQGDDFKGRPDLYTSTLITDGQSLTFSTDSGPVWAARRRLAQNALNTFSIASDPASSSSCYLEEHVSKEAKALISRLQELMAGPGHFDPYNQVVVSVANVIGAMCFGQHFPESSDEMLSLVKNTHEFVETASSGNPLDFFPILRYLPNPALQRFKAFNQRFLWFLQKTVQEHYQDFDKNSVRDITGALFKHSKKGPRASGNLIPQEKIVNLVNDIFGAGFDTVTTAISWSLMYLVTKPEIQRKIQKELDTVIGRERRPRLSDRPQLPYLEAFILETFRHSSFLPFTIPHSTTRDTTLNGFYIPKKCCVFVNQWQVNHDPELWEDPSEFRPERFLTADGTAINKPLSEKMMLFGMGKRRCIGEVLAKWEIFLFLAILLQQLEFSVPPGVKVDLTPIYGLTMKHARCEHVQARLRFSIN

Cytochrome P450 2E1 = Cytochrome P450 2E1 (Homo sapiens, UniProt P05181); details: bti-tn-5b1-4; also: in other assays of this panel Not Active means under 50% inhibition at 10 µM
Cytochrome P450 2E1, sequence (P05181 whole entry): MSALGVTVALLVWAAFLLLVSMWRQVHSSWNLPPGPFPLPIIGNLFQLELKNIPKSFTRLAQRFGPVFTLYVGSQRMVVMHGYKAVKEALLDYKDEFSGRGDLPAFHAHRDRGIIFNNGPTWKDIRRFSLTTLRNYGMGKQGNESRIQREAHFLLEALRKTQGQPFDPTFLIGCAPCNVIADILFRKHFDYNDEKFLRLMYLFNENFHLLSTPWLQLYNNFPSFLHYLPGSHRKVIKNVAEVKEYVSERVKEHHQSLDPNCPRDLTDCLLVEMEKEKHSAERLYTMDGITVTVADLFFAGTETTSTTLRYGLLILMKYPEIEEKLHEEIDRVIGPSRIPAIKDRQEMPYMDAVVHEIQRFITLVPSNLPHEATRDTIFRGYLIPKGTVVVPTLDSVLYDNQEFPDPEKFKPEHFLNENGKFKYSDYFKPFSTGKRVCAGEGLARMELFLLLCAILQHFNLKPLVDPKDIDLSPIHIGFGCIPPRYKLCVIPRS

[6] = target: T2, Neuropeptide Y receptor type 1 (Homo sapiens, UniProt P25929); assay type: cell membranes, Membrane; details: sk-n-mc; also: in other assays of this panel Not Active means under 50% inhibition at 10 µM
T2 sequence (P25929 whole entry): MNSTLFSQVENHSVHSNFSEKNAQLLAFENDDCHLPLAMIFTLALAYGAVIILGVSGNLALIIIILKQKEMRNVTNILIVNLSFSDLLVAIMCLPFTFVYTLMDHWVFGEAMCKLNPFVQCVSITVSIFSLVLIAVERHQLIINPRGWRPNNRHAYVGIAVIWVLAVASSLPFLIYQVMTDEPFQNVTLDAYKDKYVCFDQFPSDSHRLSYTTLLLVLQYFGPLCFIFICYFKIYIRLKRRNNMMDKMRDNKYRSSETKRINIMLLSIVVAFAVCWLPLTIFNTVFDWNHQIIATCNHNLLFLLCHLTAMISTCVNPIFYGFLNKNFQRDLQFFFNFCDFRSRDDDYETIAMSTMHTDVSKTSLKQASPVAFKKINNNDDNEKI

[7] = DRUGMATRIX: Sodium/nucleoside co-transporter radioligand binding (ligand: nitrobenzylthioinosine); assay type: cell membranes, Cavia porcellus, Dunkin-Hartley, Cerebral cortex, Membrane; details: Not Active = under 50% inhibition at 10 µM

Row | SMILES | IC50 [1] | Ki [1] | IC50 [2] | IC50 [3] | Ki [3] | IC50 [4] | Ki [4] | IC50 [5] | Ki [5] | IC50 (Cytochrome P450 1A2) | Ki (Cytochrome P450 1A2) | IC50 (Cytochrome P450 2E1) | Ki (Cytochrome P450 2E1) | IC50 [6] | IC50 [7] | Ki [7] | IC50 ([4]; read-out: IC50) | Ki ([4]; read-out: Ki)
1 | COc1ccccc1C(=O)N1CCC(Cc2ccccc2)CC1 | Not Active | Not Active | Not Active | Not Active | Not Active | Not Active | Not Active | Not Active | Not Active | Not Active | Not Active | Not Active | Not Active | Not Active | Not Active | Not Active |  | 
2 | Cc1ccccc1C(=O)N1CCC(Cc2ccccc2)CC1 | Not Active | Not Active | Not Active | Not Active | Not Active | Not Active | Not Active | Not Active | Not Active | Not Active | Not Active | Not Active | Not Active | Not Active | Not Active | Not Active |  | 
3 | O=C1CC[C@H](N2C(=O)c3ccccc3C2=O)C(=O)N1 | Not Active | Not Active | Not Active | Not Active | Not Active | Not Active | Not Active | Not Active | Not Active | Not Active | Not Active | Not Active | Not Active | Not Active | Not Active | Not Active |  | 
4 | N=C(Nc1ccccc1)Nc1ccccc1 | Not Active | Not Active | Not Active | Not Active | Not Active | Not Active | Not Active | Not Active | Not Active | Not Active | Not Active | Not Active | Not Active | Not Active | Not Active | Not Active |  | 
5 | S=C=Nc1cccc2ccccc12 [1-NAPHTHYLISOTHIOCYANATE] | Not Active | Not Active | Not Active | Not Active | Not Active | Not Active | Not Active | Not Active | Not Active |  |  | Not Active | Not Active | Not Active | Not Active | Not Active |  | 
6 | CCCC(=O)Nc1ccc(OCC(O)CNC(C)C)c(C(C)=O)c1 (configuration not stated) [ACEBUTOLOL] | Not Active | Not Active |  | Not Active | Not Active | Not Active | Not Active | Not Active | Not Active | Not Active | Not Active | Not Active | Not Active | Not Active | Not Active | Not Active |  | 
7 | O=NN(CCCl)C(=O)NCCCl [CARMUSTINE] | Not Active | Not Active | Not Active | Not Active | Not Active | Not Active | Not Active | Not Active | Not Active |  |  |  |  | Not Active | Not Active | Not Active |  | 
8 | CC1=C(C(=O)O)N2C(=O)[C@@H](NC(=O)[C@H](N)c3ccccc3)[C@H]2SC1 [CEPHALEXIN ANHYDROUS] | Not Active | Not Active | Not Active | Not Active | Not Active | Not Active | Not Active | Not Active | Not Active |  |  | Not Active | Not Active | Not Active | Not Active | Not Active |  | 
9 | O=C(N[C@H](CO)[C@H](O)c1ccc([N+](=O)[O-])cc1)C(Cl)Cl [CHLORAMPHENICOL] | Not Active | Not Active | Not Active | Not Active | Not Active | Not Active | Not Active | Not Active | Not Active |  |  |  |  | Not Active | Not Active | Not Active |  | 
10 | CCOC(=O)C(C)(C)Oc1ccc(Cl)cc1 [CLOFIBRATE] | Not Active | Not Active | Not Active | Not Active | Not Active | Not Active | Not Active | Not Active | Not Active |  |  | Not Active | Not Active | Not Active | Not Active | Not Active |  | 
11 | C[C@@H]1C[C@@H]([C@H](O)CC2CC(=O)NC(=O)C2)C(=O)[C@@H](C)C1 [CYCLOHEXIMIDE] | Not Active | Not Active | Not Active | Not Active | Not Active | Not Active | Not Active | Not Active | Not Active |  |  |  |  | Not Active | Not Active | Not Active |  | 
12 | C/C=C/C[C@@H](C)[C@@H](O)[C@H]1C(=O)N[C@@H](CC)C(=O)N(C)CC(=O)N(C)[C@@H](CC(C)C)C(=O)N[C@@H](C(C)C)C(=O)N(C)[C@@H](CC(C)C)C(=O)N[C@@H](C)C(=O)N[C@H](C)C(=O)N(C)[C@@H](CC(C)C)C(=O)N(C)[C@@H](CC(C)C)C(=O)N(C)[C@@H](C(C)C)C(=O)N1C [CYCLOSPORINE] | Not Active | Not Active | Not Active | Not Active | Not Active | Not Active | Not Active | Not Active | Not Active |  |  |  |  | Not Active | Not Active | Not Active |  | 
13 | COc1ccc2c(c1)[C@]13CCCC[C@@H]1[C@H](C2)N(C)CC3 [DEXTROMETHORPHAN] | Not Active | Not Active | Not Active | Not Active | Not Active | Not Active | Not Active | Not Active | Not Active |  |  | Not Active | Not Active | Not Active | Not Active | Not Active |  | 
14 | NC(=O)NO [HYDROXYUREA] | Not Active | Not Active | Not Active | Not Active | Not Active | Not Active | Not Active | Not Active | Not Active |  |  |  |  | Not Active | Not Active | Not Active |  | 
15 | CC(=O)Nc1cccc(O)c1 [METACETAMOL] | Not Active | Not Active | Not Active | Not Active | Not Active | Not Active | Not Active | Not Active | Not Active |  |  | Not Active | Not Active | Not Active | Not Active | Not Active |  | 
16 | COc1ccc2cc([C@H](C)C(=O)O)ccc2c1 [NAPROXEN] | Not Active | Not Active | Not Active | Not Active | Not Active | Not Active | Not Active | Not Active | Not Active |  |  |  |  | Not Active | Not Active | Not Active |  | 
17 | COC(=O)C1=C(C)NC(C)=C(C(=O)OCC(C)C)C1c1ccccc1[N+](=O)[O-] (configuration not stated) [NISOLDIPINE] | Not Active | Not Active | Not Active | Not Active | Not Active |  |  | Not Active | Not Active |  |  | Not Active | Not Active | Not Active | Not Active | Not Active | 0.741 nM | 0.476 nM
18 | CCn1cc(C(=O)O)c(=O)c2cc(F)c(N3CCN(C)CC3)cc21 [PEFLOXACIN] | Not Active | Not Active | Not Active | Not Active | Not Active | Not Active | Not Active | Not Active | Not Active |  |  |  |  | Not Active | Not Active | Not Active |  | 
